Here are results for 34 compounds from patent US20050009894A1 (Aventis Pharma S.A., priority 2001, published 2005).

SMILES strings stand for the structures. Read-outs that look alike come from different tables or passages of the source.

For the assay, the target named is T1, human KDR enzyme (Homo sapiens, UniProt P35968).
T1 construct: The cytoplasmic domain of human KDR enzyme is cloned in the form of a GST fusion; GST; made in house; host or cells: SF21 insect cells (baculovirus, pFastBac)
As to the kind of experiment: Phosphorylation of the substrate PLCγ by the enzyme KDR in vitro (flashplate technique). Type of assay: biochemical. The procedure:
The inhibitory effect of the compounds is determined in a test of phosphorylation of a substrate by the enzyme KDR in vitro by the flasplate technique (96-well plate, NEN). The cytoplasmic domain of human KDR enzyme is cloned in the form of a GST fusion into the baculovirus expression vector pFastBac. The protein is expressed in the SF21 cells and purified to about 60% homogeneity.
The kinase activity of KDR is measured in 20 mM MOPS, 10 mM MgCl2, 10 mM MnCl2, 1 mM DTT, 2.5 mM EGTA, 10 mM β-glycerophosphate, pH 7.2 in the presence of 10 mM MgCl2, 100 μM Na3VO4, 1 mM NaF. 10 μl of the compound are added to 70 μl of kinase buffer containing 100 ng of KDR enzyme at 4° C. The reaction is initiated by adding 20 μl of solution containing 2 μg of substrate (fragment SH2-SH3 of PLCγ expressed in the form of a GST fusion protein), 2 μCi γ33P[ATP] and 2 μM cold ATP. After incubating for 1 h at 37° C., the reaction is quenched by adding 1 volume (100 μl) of 200 mM EDTA. The incubation buffer is removed and the wells are washed three times with 300 μl of PBS. The radioactivity is measured in each well using a Top Count NXT instrument (Packard).
Background noise is determined by measuring the radio-activity in wells in quadruplet containing radioactive ATP and the substrate alone.
An activity control is measured in wells in quadruplet containing all the reagents (γ33P-[ATP], KDR and the substrate PLCγ) and in the absence of compound.
The inhibition of the KDR activity with the compound of the invention is expressed as a percentage of inhibition of the control activity determined in the absence of compound.
The compound SU5614 (Calbiochem) (1 μM) is included in each plate as inhibition control.
The IC50 values for the compounds are calculated by plotting the dose-response curves. The IC50 corresponds to the concentration of compound that induces a 50% inhibition of the kinase activity.

[1] abbreviates: Table VII, degrees of activity by IC50 range, read-out: Activity.
[2] abbreviates: read-out: IC50 (μM) on inhibition of the phosphory-lation of PLCγ by KDR.

T1 sequence (P35968 786-1356 limits assumed): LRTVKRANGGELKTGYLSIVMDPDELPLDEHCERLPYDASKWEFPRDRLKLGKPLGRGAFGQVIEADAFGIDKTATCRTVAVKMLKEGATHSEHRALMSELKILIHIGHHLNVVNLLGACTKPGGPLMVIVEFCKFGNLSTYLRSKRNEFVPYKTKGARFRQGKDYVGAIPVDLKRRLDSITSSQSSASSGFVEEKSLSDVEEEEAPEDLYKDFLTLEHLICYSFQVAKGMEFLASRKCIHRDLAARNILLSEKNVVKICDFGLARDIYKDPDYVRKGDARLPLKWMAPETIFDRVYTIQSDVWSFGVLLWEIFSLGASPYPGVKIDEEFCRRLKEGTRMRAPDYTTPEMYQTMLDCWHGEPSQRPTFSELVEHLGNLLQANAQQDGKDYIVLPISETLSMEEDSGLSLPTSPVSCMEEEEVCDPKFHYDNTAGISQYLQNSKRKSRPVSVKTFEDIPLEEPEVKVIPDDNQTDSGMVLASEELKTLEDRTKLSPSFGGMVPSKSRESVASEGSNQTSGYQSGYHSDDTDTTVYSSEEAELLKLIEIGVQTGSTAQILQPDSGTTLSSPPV

Take `Fc1ccc(-c2ccc3nc(-c4[nH]nc5ccccc45)[nH]c3c2)cc1` [Example 100, 3-[6-(4-Fluoro-phenyl)-1H-benzoimidazol-2-yl]-2H-indazole]: the IC50 under setting [1] is 0.3 to 3 µM.

Turning to `O=C(NCc1cccc(C(F)(F)F)c1)c1cccc2nc(-c3n[nH]c4ccccc34)[nH]c12` [Example 88, 2-(1H-Indazol-3-yl)-3H-benzoimidazole-4-carboxylic acid 3-trifluoromethyl-benzylamide], the IC50 under setting [1] is above 3 µM.

As to `O=C(Oc1cc(-c2nc3ccccc3[nH]2)[nH]n1)c1c(F)c(F)c(F)c(F)c1F` [Example 220, 2,3,4,5,6-Pentafluoro-benzoic acid 5-(1H-benzoimidazol-2-yl)-1H-pyrazol-3-yl ester], the IC50 under setting [1] is above 3 µM.

For `Oc1ccc(-c2ccc3nc(-c4[nH]nc5ccccc45)[nH]c3c2)cc1` [Example 122, 4-[2-(2H-Indazol-3-yl)-3H-benzoimidazol-5-yl]-phenol], the IC50 under setting [1] lay in the range of 0.3 to 3 µM.

On to `c1ccc2sc(-c3ccc4nc(-c5[nH]nc6ccccc56)[nH]c4c3)cc2c1` [Example 126, 3-(6-Benzo[b]thiophen-2-yl-1H-benzoimidazol-2-yl)-2H-indazole], for which the IC50 under setting [1] was above 3 µM.

As to `Cc1cccc(CNC(=O)c2ccc3[nH]c(-c4n[nH]c5ccccc45)nc3c2)c1` [Example 71, 2-(1H-Indazol-3-yl)-1H-benzoimidazole-5-carboxylic acid 3-methyl-benzylamide], under setting [1], the IC50 was below 0.3 µM.

On to `OCc1ccc(-c2ccc3nc(-c4[nH]nc5ccccc45)[nH]c3c2)cc1` [Example 141, {4-[2-(2H-Indazol-3-yl)-3H-benzoimidazol-5-yl]-phenyl}-methanol], for which the IC50 under setting [1] is 0.3 to 3 µM.

For `c1ccc2c(-c3nc4ccc(-c5ccsc5)cc4[nH]3)[nH]nc2c1` [Example 110, 3-(6-Thiophen-3-yl-1H-benzoimidazol-2-yl)-2H-indazole], the IC50 under setting [1] lay within 0.3 to 3 µM.

As to `COc1ccc(-c2ccc3nc(-c4[nH]nc5ccccc45)[nH]c3c2)cc1OC` [Example 120, 3-[6-(3,4-Dimethoxy-phenyl)-1H-benzoimidazol-2-yl]-2H-indazole], under setting [1], the IC50 was 0.3 to 3 µM.

With `COc1cccc(COc2cc(-c3nc4ccccc4[nH]3)[nH]n2)c1` [Example 197, 2-[5-(3-Methoxy-benzyloxy)-2H-pyrazol-3-yl]-1H-benzoimidazole], the IC50 under setting [1] lay in the range of 0.3 to 3 µM.

For the compound `O=C(Oc1cc(-c2nc3ccccc3[nH]2)[nH]n1)c1ccncc1` [Example 214, Isonicotinic acid 5-(1H-benzoimidazol-2-yl)-1H-pyrazol-3-yl ester], under setting [1], the IC50 lay within 0.3 to 3 µM.

`O=C(NCc1ccc(-c2ccc(Cl)cc2)cc1)c1ccc2[nH]c(-c3n[nH]c4ccccc34)nc2c1` [Example 162, 2-(1H-Indazol-3-yl)-1H-benzoimidazole-5-carboxylic acid (4′-chloro-biphenyl-4-ylmethyl)-amide]: the IC50 under setting [1] was above 3 µM.

As for `c1ccc2[nH]c(-c3cc(OCCN4CCCCC4)n[nH]3)nc2c1` [Example 196, 2-[5-(2-Piperidin-1-yl-ethoxy)-2H-pyrazol-3-yl]-1H-benzoimidazole], the IC50 under setting [1] was above 3 µM.

`CN(C)c1ccc(C(=O)COc2cc(-c3nc4ccccc4[nH]3)[nH]n2)cc1` [Example 202, 2-[5-(1H-Benzoimidazol-2-yl)-1H-pyrazol-3-yloxy]-1-(4-dimethylamino-phenyl)-ethanone]: the IC50 under setting [1] is above 3 µM.

For `Fc1c(F)c(F)c(COc2cc(-c3nc4ccccc4[nH]3)[nH]n2)c(F)c1F` [Example 189, 2-(5-Pentafluoro-phenylmethoxy-2H-pyrazol-3-yl)-1H-benzoimidazole], the IC50 under setting [1] was above 3 µM.

In the case of `O=C(NCCc1ccccc1)c1ccc2[nH]c(-c3n[nH]c4ccccc34)nc2c1` [Example 6, 2-(1H-Indazol-3-yl)-1H-benzimidazole-5-carboxylic acid N-phenethylamide], under setting [2], the IC50 amounted to 0.33 µM.

With `O=C(NCCCn1ccnc1)c1ccc2[nH]c(-c3n[nH]c4ccccc34)nc2c1` [Example 174, 2-(1H-Indazol-3-yl)-1H-benzoimidazole-5-carboxylic acid (3-imidazol-1-yl-propyl)-amide], under setting [1], the IC50 lay in the range of 0.3 to 3 µM.

For `Cc1cc(C)cc(CNC(=O)c2cccc3nc(-c4n[nH]c5ccccc45)[nH]c23)c1` [Example 92, 2-(1H-Indazol-3-yl)-3H-benzoimidazole-4-carboxylic acid 3,5-dimethyl-benzylamide], the IC50 under setting [1] was in the range of 0.3 to 3 µM.

As for `O=C(NCc1ccc(-c2ccccc2Cl)cc1)c1ccc2[nH]c(-c3n[nH]c4ccccc34)nc2c1` [Example 171, 2-(1H-Indazol-3-yl)-1H-benzoimidazole-5-carboxylic acid (2′-chloro-biphenyl-4-ylmethyl)-amide], under setting [1], the IC50 was 0.3 to 3 µM.

`O=C(COc1cc(-c2nc3ccccc3[nH]2)[nH]n1)C(F)(F)C(F)(F)F` [Example 199, 1-[5-(1H-Benzoimidazol-2-yl)-1H-pyrazol-3-yloxy]-3,3,4,4,4-pentafluoro-butan-2-one]: the IC50 under setting [1] is above 3 µM.

Consider `CC(C)c1ccc(CNC(=O)c2ccc3[nH]c(-c4n[nH]c5ccccc45)nc3c2)cc1` [Example 52, 2-(1H-Indazol-3-yl)-1H-benzoimidazole-5-carboxylic acid 4-isopropyl-benzylamide], for which the IC50 under setting [1] was 0.3 to 3 µM.

Turning to `c1coc(-c2ccc3nc(-c4[nH]nc5ccccc45)[nH]c3c2)c1` [Example 142, 3-(6-Furan-2-yl-1H-benzoimidazol-2-yl)-2H-indazole], under setting [1], the IC50 was in the range of 0.3 to 3 µM.

Consider `NS(=O)(=O)c1cc(C(=O)COc2cc(-c3nc4ccccc4[nH]3)[nH]n2)ccc1Cl` [Example 211, 5-{2-[5-(1H-Benzoimida-zol-2-yl)-1H-pyrazol-3-yloxy]-acetyl}-2-chloro-benzenesulfonamide], for which the IC50 under setting [1] is above 3 µM.

Consider `c1ccc(COc2cc(-c3nc4ccccc4[nH]3)[nH]n2)cc1` [Example 181, 2-[5-(benzyloxy)-2H-pyrazol-3-yl]-1H-benzoimidazole], for which the IC50 under setting [1] lay within 0.3 to 3 µM.

Turning to `O=C(c1ccc2[nH]c(-c3n[nH]c4ccccc34)nc2c1)N1CCOCC1` [Example 150, [2-(1H-Indazol-3-yl)-1H-benzoimidazol-5-yl]-morpholin-4-yl-methanone], the IC50 under setting [1] lay within 0.3 to 3 µM.

Take `CN1CCN(C(=O)c2ccc3[nH]c(-c4n[nH]c5ccccc45)nc3c2)CC1` [Example 8, 2-(1H-Indazol-3-yl)-1H-benzimidazole-5-carboxylic acid N-(N′-methyl-piperazino)amide]: under setting [2], the IC50 is 0.67 µM.

`Cc1cc(C)cc(CNC(=O)c2ccc3[nH]c(-c4n[nH]c5ccccc45)nc3c2)c1` [Example 69, 2-(1H-Indazol-3-yl)-1H-benzoimidazole-5-carboxylic acid 3,5-dimethyl-benzylamide]: the IC50 under setting [1] was in the range of 0.3 to 3 µM.

For `O=C(NCc1cccnc1)c1ccc2[nH]c(-c3n[nH]c4ccccc34)nc2c1` [Example 38, 2-(1H-Indazol-3-yl)-1H-benzoimidazole-5-carboxylic acid (pyridin-3-ylmethyl)-amide], the IC50 under setting [1] was in the range of 0.3 to 3 µM.

As for `CSc1ccccc1CNC(=O)c1ccc2[nH]c(-c3n[nH]c4ccccc34)nc2c1` [Example 62, 2-(1H-Indazol-3-yl)-1H-benzoimidazole-5-carboxylic acid 2-methylsulfanyl-benzylamide], under setting [1], the IC50 was below 0.3 µM.

Regarding `FC(F)(F)c1cccc(-c2ccc3nc(-c4[nH]nc5ccccc45)[nH]c3c2)c1` [Example 111, 3-[6-(3-Trifluoromethyl-phenyl)-1H-benzoimidazol-2-yl]-2H-indazole], the IC50 under setting [1] is above 3 µM.

In the case of `Cc1ccc(F)c(CNC(=O)c2ccc3[nH]c(-c4n[nH]c5ccccc45)nc3c2)c1F` [Example 166, 2-(1H-Indazol-3-yl)-1H-benzoimidazole-5-carboxylic acid 2,6-difluoro-3-methyl-benzylamide], the IC50 under setting [1] fell in the range of 0.3 to 3 µM.

As for `CC(C)(C)c1ccc(COc2cc(-c3nc4ccccc4[nH]3)[nH]n2)cc1` [Example 190, 2-[5-(4-tert-Butyl-benzyloxy)-2H-pyrazol-3-yl]-1H-benzoimidazole], the IC50 under setting [1] is above 3 µM.

For `Brc1ccc2nc(-c3n[nH]c4ccccc34)[nH]c2c1` [Example 18, 5-Bromo-2-(1H-indazol-3-yl)-3H-benzimidazole], the inhibition at 10 µM (product tested at 10 μM, read-out: % of inhibition of the phosphorylation of PLCγ by KDR (product tested at a concentration of 10 μM)) worked out at 91.2%.

On to `O=C(NCc1ccoc1)c1cccc2nc(-c3n[nH]c4ccccc34)[nH]c12` [Example 90, 2-(1H-Indazol-3-yl)-3H-benzoimidazole-4-carboxylic acid (furan-3-ylmethyl)-amide], for which the IC50 under setting [1] is 0.3 to 3 µM.
